Patent US20260284165A1, “COMPOSITIONS AND METHODS FOR TREATMENT OR P[…] OF CANCER INCLUDING TRIPLE NEGATIVE BREAST CANCER AND/OR LUNG CANCER” (The Medical College of Wisconsin, Inc., priority 2023, published 2026)

Test system: splenocytes
Assay: IFNγ ELISPOT in splenocytes, cyclin E2 and KIF15 epitopes
Type: cell-based, mice
Settings: after four immunizations
Text: We developed both cyclin E2 and KIF15 MHC-II vaccines using the multi-scoring system to identify immunogenic epitopes (Table 4). […] This multi-antigen preventive vaccine should also help overcome antigen-negative variant escape that has been observed with single antigen vaccines. Currently, a mRNA vaccine is also in development that contains the epitopes of TOP2A, cyclin E2 or KIF15 and will test its efficacy and immune response in relevant preclinical animal models.

Sequence	type I immunity (IFNγ ELISPOT)
VVKSTSPVKLKTFKK [p334]	elicited type I immunity
AAALCHFTSIEVVKK [p298]	elicited type I immunity
SHNLRGVIPRSFEYL [p129]	elicited type I immunity
